{"source": "patent US11083735B2", "about": "“Methods for treating sleep disorders, sleep disturbances, and related symptoms using aminosterol compositions” (Enterin, Inc., priority 2017, dated 2021)", "key": {"[1]": {"test": "Pharmacokinetics of orally administered squalamine (ENT-01) in Stage 2", "format": "in vivo, human", "conditions": "Stage 2, oral; for Cmax: squalamine ion, mean", "description": "Pharmakokinetics: PK data were collected on the 10 patients enrolled in Stage 1 and 10 patients enrolled in Stage 2 to determine the extent of systemic absorption. In Stage 1, PK data were obtained at each visit, pre-medication, at 1, 2, 4, 8 and 24 hours (Table 14). In Stage 2, PK was measured on days 1 and 6 of the randomization period pre-medication, at 1, 2, 4 and 8 hours (Table 15).\nThe mean Cmax, Tmax and T1/2 and AUC of the squalamine ion following squalamine (ENT-01) oral dosing for Stage 1 patients. The PK analyses are only approximate, as the lower limit of the validated concentration range was 10 ng/ml; most of the measured concentrations fell below that value. The mean Cmax, Tmax and T1/2 and AUC of the squalamine ion following squalamine (ENT-01) oral dosing for Stage 2 patients. The PK analyses are only approximate, as the lower limit of the validated concentration range was 0.5 ng/ml."}, "[2]": {"tested_on": "patients with PD", "test": "Phase 2 trial Stage 2: CNS symptoms (UPDRS, MMSE, BDI-II, PDHQ, hallucinations)", "format": "in vivo, human", "excerpt": "(8) Beck Depression Inventory (BDI-II);\n(9) Unified Parkinson's Disease Rating Scale (UPDRS), which consists of 42 items in four subscales (Part I=Non-Motor Aspects of Experiences of Daily Living (nM-EDL) (1.1 cognitive impairment, 1.2 hallucinations and psychosis, 1.3 depressed mood, Part II=Motor Aspects of Experiences of Daily Living (M-EDL), Part III=Motor Examination, and Part IV=Motor Complications;\n(10) Mini Mental State Examination (MMSE);\n(12) The University of Miami Parkinson's Disease Hallucinations Questionnaire (UM-PDHQ);\nExploratory end-points, in addition to constipation, included for example, (i) depression assessed using the Beck Depression Inventory (BDI-II) (Steer et al. 2000) and Unified Parkinson's Disease Rating Scale (UPDRS); (ii) cognition assessed using the Mini Mental State Examination (MMSE) (Palsteia et al. 2018), Unified Parkinson's Disease Rating Scale (UPDRS), and Trail Making Test (TMT); (iii) sleep and REM-behavior disorder (RBD) using a daily sleep diary, I-Button Temperature Assessment, a REM sleep behavior disorder (RBD) questionnaire (RBDQ) (Stiasny-Kolster et al. 2007), and the UPDRS; (iv) hallucinations assessed using the PD hallucinations questionnaire (PDHQ) (Papapetropoulos et al. 2008), the UPDRS, and direct questioning; (v) fatigue using the Parkinson's Disease Fatigue Scale (PFS-16) and the UPDRS; (vi) motor functions using the UPDRS; and (vii) non-motor functions using the UPDRS.\nAssessments were made at baseline and at the end of the fixed dose and washout periods. Circadian system status was evaluated by continuously monitoring wrist skin temperature (Thermochron iButton DS1921H; Maxim, Dallas) following published procedures (Sarabia et al. 2008).\nCNS Symptoms in Stage 2: An exploratory analysis was done with respect to the sleep data, the body temperature data, mood, fatigue, hallucinations, cognition and other motor and non-motor symptoms of PD. Continuous measurements within a subject were compared with a paired t-test and continuous measurements between subject groups were compared with a two-group t-test. Categorical data were compared with a chi-squared test or a Fisher's exact test if the expected cell counts are too small for a chi-squared test.\nCNS symptoms: CNS symptoms were evaluated at baseline and at the end of the fixed dose period and the wash-out period (Table 16). Total UPDRS score was 64.4 at baseline, 60.6 at the end of the fixed dose period and 55.7 at the end of the wash-out period (p=0.002); similarly, the motor component of the UPDRS improved from 35.3 at baseline to 33.3 at the end of fixed dose to 30.2 at the end of wash-out (p=0.006). MMSE improved from 28.4 at baseline to 28.7 during treatment and to 29.3 during wash-out (p=0.0006). […] PDHQ improved from 1.3 at baseline to 1.8 during treatment and 0.9 during wash-out (p=0.03). Hallucinations were reported by 5 patients at baseline and delusions in 1 patient. […] The frequency of arm or leg thrashing reported in the sleep diary diminished progressively from 2.2 episodes/week at baseline to 0 at maximal dose. […] Unlike stool-related indices, the improvement in many CNS symptoms persisted during wash-out."}}, "note": "Where “and” joins values, the source holds several entries; their conditions need not be identical. Identical values can stand only once.", "data": [{"smiles": "CC(C)[C@@H](CC[C@@H](C)[C@H]1CC[C@H]2[C@@H]3[C@H](O)C[C@H]4C[C@@H](NCCCNCCCCN)CC[C@]4(C)[C@H]3CC[C@]12C)OS(=O)(=O)O", "note": "(single isomer, unassigned; ent-01) [ENT-01]", "values": [{"measurement": "AUC0-8 hr", "setting": "[1]; dose 75 mg", "value": 59.0, "unit": "ng·h/mL"}, {"measurement": "Tmax (Median Value)", "setting": "[1]; dose 75 mg", "value": 3.0, "unit": "h"}, {"measurement": "Cmax", "setting": "[1]; dose 75 mg", "value": 10.0, "unit": "ng/mL"}, {"measurement": "AUC0-8 hr", "setting": "[1]; dose 100 mg", "value": 70.3, "unit": "ng·h/mL"}, {"measurement": "Tmax (Median Value)", "setting": "[1]; dose 100 mg", "value": 1.0, "unit": "h"}, {"measurement": "Cmax", "setting": "[1]; dose 100 mg", "value": 17.7, "unit": "ng/mL"}, {"measurement": "AUC0-8 hr", "setting": "[1]; dose 175 mg", "value": 66.8, "unit": "ng·h/mL"}, {"measurement": "Tmax (Median Value)", "setting": "[1]; dose 175 mg", "value": 2.0, "unit": "h"}, {"measurement": "Cmax", "setting": "[1]; dose 175 mg", "value": 11.8, "unit": "ng/mL"}, {"measurement": "PDHQ, Fixed dose (Mean, SD)", "setting": "[2]; Stage 2, end of fixed dose period, baseline 1.3 (2.99)", "value": 1.8}, {"measurement": "BDI-II, Fixed dose (Mean, SD)", "setting": "[2]; Stage 2, end of fixed dose period, baseline 10.9 (7.12)", "value": 9.9}, {"measurement": "UPDRS Part 1 (NMS), Fixed dose (Mean, SD)", "setting": "[2]; Stage 2, end of fixed dose period, baseline 11.6 (6.51)", "value": 10.6}, {"measurement": "UPDRS Part 2 (Daily living), Fixed dose (Mean, SD)", "setting": "[2]; Stage 2, end of fixed dose period, baseline 14.9 (8.11)", "value": 14.7}, {"measurement": "MMSE, Fixed dose (Mean, SD)", "setting": "[2]; Stage 2, end of fixed dose period, baseline 28.4 (1.75)", "value": 28.7}, {"measurement": "UPDRS Part 3 (Motor), Fixed dose (Mean, SD)", "setting": "[2]; Stage 2, end of fixed dose period, baseline 35.3 (14.35)", "value": 33.3}, {"measurement": "UPDRS Total, Fixed dose (Mean, SD)", "setting": "[2]; Stage 2, end of fixed dose period, baseline 64.4 (23.72)", "value": 60.6}, {"measurement": "PDHQ, Wash-out (Mean, SD)", "setting": "[2]; Stage 2, end of wash-out period, baseline 1.3 (2.99)", "value": "0.9 (2.33)"}, {"measurement": "BDI-II, Wash-out (Mean, SD)", "setting": "[2]; Stage 2, end of wash-out period, baseline 10.9 (7.12)", "value": "8.7 (5.19)"}, {"measurement": "UPDRS Part 1 (NMS), Wash-out (Mean, SD)", "setting": "[2]; Stage 2, end of wash-out period, baseline 11.6 (6.51)", "value": "9.5 (5.27)"}, {"measurement": "UPDRS Part 2 (Daily living), Wash-out (Mean, SD)", "setting": "[2]; Stage 2, end of wash-out period, baseline 14.9 (8.11)", "value": "14.1 (8.21)"}, {"measurement": "MMSE, Wash-out (Mean, SD)", "setting": "[2]; Stage 2, end of wash-out period, baseline 28.4 (1.75)", "value": "29.3 (1.06)"}, {"measurement": "UPDRS Part 3 (Motor), Wash-out (Mean, SD)", "setting": "[2]; Stage 2, end of wash-out period, baseline 35.3 (14.35)", "value": "30.2 (13.23)"}, {"measurement": "UPDRS Total, Wash-out (Mean, SD)", "setting": "[2]; Stage 2, end of wash-out period, baseline 64.4 (23.72)", "value": "55.7 (23.69)"}, {"measurement": "hallucinations in one patient", "setting": "[2]; at 100 mg (prokinetic dose of this patient 175 mg)", "value": "disappeared"}, {"measurement": "BDI-II", "setting": "[2]; at wash-out", "value": 8.7}, {"measurement": "patients in whom hallucinations and delusions improved or disappeared", "setting": "[2]; during treatment", "value": "5 of 6"}, {"measurement": "PDHQ", "setting": "[2]; during treatment, baseline 1.3", "value": 1.8}, {"measurement": "BDI-II", "setting": "[2]; during treatment, baseline 10.9", "value": 9.9}, {"measurement": "MMSE", "setting": "[2]; during treatment, baseline 28.4", "value": 28.7}, {"measurement": "MMSE", "setting": "[2]; during wash-out", "value": 29.3}, {"measurement": "PDHQ", "setting": "[2]; during wash-out", "value": 0.9}, {"measurement": "motor component of the UPDRS", "setting": "[2]; end of fixed dose, baseline 35.3", "value": 33.3}, {"measurement": "Total UPDRS score", "setting": "[2]; end of the fixed dose period, baseline 64.4", "value": 60.6}, {"measurement": "Total UPDRS score", "setting": "[2]; end of the wash-out period", "value": 55.7}, {"measurement": "motor component of the UPDRS", "setting": "[2]; end of wash-out", "value": 30.2}, {"measurement": "time free of hallucinations following cessation of dosing", "setting": "[2]; one patient", "value": 1, "unit": "month"}, {"measurement": "time without return of hallucinations/delusions following discontinuation", "setting": "[2]; single patients", "value": "4 weeks and 2 weeks"}]}]}
